Laboratory results published in patent US20040146971A1, “Novel p53 inducible protein” (priority 2001, published 2004).
Starred links: 1 amine or outer side, 2 acyl side, 3 side chain; linkers in the order of their positions; H or OH if unused. Positions of bridges follow the written chain, without caps; N, C: chain ends. Non-standard residues stand in square brackets, D forms with d. Residues, ends and D or L forms follow the SMILES beside them. Chains are numbered I, II in the order given. Actinocin(9to1) = Cc1c2oc3c(C)ccc(C(=O)[*:1])c3nc-2c(C(=O)[*:2])c(N)c1=O; NMeV = CN[C@H](C(=O)O)C(C)C; Sar = CNCC(=O)O

What was measured:
Scotin [1] = experiment: Western blot of Scotin protein induction in human fibroblasts and tumour cell lines; type: cell-based
Method: (§1) FIG. 7 is a western blot which illustrates that p53 is necessary and sufficient to induce Scotin protein expression. a) Only primary mouse embryonic fibroblasts (MEF) expressing WTp53 induce Scotin after UV irradiation or Actinomycin D treatment. MEF from p53−/− and p53+/+ littermate mice were exposed to UV-C light (20 J/m2) or Actinomycin D (60 ng/ml). Proteins were extracted at time indicated after treatment and analysed by Western blot by using affinity purified rabbit polyclonal anti-mouse-Scotin antibody. As a positive control, p53 and Waf induction were determined by using CM5 rabbit polyclonal anti-mouse p53 antibody and F5 mouse monoclonal anti-Waf antibody. […] Scotin expression was analysed by Western blot by using affinity purified rabbit polyclonal anti-human Scotin antibody. […]
(§2) Cells were washed and scraped in PBS buffer and centrifuged at 2000 rpm for 2 min. […] Protein concentration of the supernatant was determined by the Bradford assay. […]
(§3) In order to further characterise Scotin protein, it was essential to identify cell lines that could induce Scotin upon DNA damage. […] Proteins were extracted after treatment and levels analysed by Western blot Waf and p53 protein levels were used as an indication of p53 activation.

Scotin [2] = experiment: Western blot of Scotin protein induction in mouse embryonic fibroblasts; type: cell-based; conditions: 60 ng/ml
Method: as §1, §2, §3

p53−/− fibroblasts = experiment: Apoptosis of p53-/- fibroblasts after ER stress activators; type: cell-based, mouse
Method: (§4) The list of conditions known to trigger the ER stress response includes treatment of cells with thapsigargin, which interferes with calcium flux across the ER membrane, or tunicamycin, an inhibitor of N-linked glycosylation, or reducing agents, or deprivation of nutrients such as glucose, amino acids, or hypoxia. […] NIH3T3, p53−/−, Scotin antisense and control antisense expressing fibroblasts were treated with different doses of thapsigargin or tunicamycin or FCCP, a protonophore inducing mitochondrial stress. Cell survival was estimated by giemsa staining (FIG. 12.3).

NIH3T3 fibroblasts = experiment: TUNEL staining of drug-treated NIH3T3 fibroblasts; type: cell-based, mouse; conditions: NIH3T3, 24 h; tunicamycin 1 μg/ml, thapsigargin 150 nM
Method: NIH3T3 fibroblasts were treated for 24 h with 1 μg/ml of tunicamycin, fixed by paraformaldehyde and stained by TUNEL. Cells in apoptosis are stained by TUNEL (eft hand images).
For TUNEL assay, cells (3×10^5) seeded on 2-well glass chamber slide, were transfected as described. Cells were fixed for 30 min at RT in 4% paraformaldehyde in PBS, washed in PBS and permeabilised 2 min at 4° C. in 0.1% Triton X-100, 0.1% sodium citrate. The TUNEL staining was performed accordingly to the manufacturer's protocol (In Situ Cell Death Detection kit, Roche Molecular Biochemicals). The apoptotic cells presenting fragmented DNA were then labelled in green after incorporation of fluorescein.

[3] = test system: NIH3T3-derived Scotin antisense and control antisense fibroblasts; experiment: Cell survival by Giemsa staining, Scotin antisense versus control antisense fibroblasts; type: cell-based, mouse; conditions: different doses
Method: Cell survival was determinated as described in the Experimental Procedures by trypan blue 24 h after irradiation. Histogram represents the compilation of 4 independent experiments. Standard Deviation is reported as error bars. b) Clonoge assay; Scotin antisense and control antisense expressing fibroblasts were treated at concentrations indicated with the DNA-damaging agent Doxorubicin (Dx) or with the activators of ER stress Thapsigargin (Tg) or Tunicamycin (Tu) or with an activator of mitochondrial stress, FCCP. After treatment, cells were fixed in methanol and stained by Giemsa.
Cells were treated with different doses of doxorubicin for 24 h and were allowed to recover for 24 h after treatment. Cell survival was estimated by giemsa staining.
as §4

| Molecule | apoptosis induced by the drug in p53−/− fibroblasts (p53−/− fibroblasts) | resistance of Scotin antisense cells compared with control antisense cells to cell death induced by the drug [3] | also measured |
| --- | --- | --- | --- |
| Cc1c2oc3c(C)ccc(C(=O)N[C@@H]4C(=O)N[C@H](C(C)C)C(=O)N5CCC[C@H]5C(=O)N(C)CC(=O)N(C)[C@@H](C(C)C)C(=O)O[C@@H]4C)c3nc-2c(C(=O)N[C@@H]2C(=O)N[C@H](C(C)C)C(=O)N3CCC[C@H]3C(=O)N(C)CC(=O)N(C)[C@@H](C(C)C)C(=O)O[C@@H]2C)c(N)c1=O [Actinomycin D] (I: T[dV]P[Sar][NMeV] / II: T[dV]P[Sar][NMeV]; ester I:1-I:C, II:1-II:C; linker I:N-II:N via Actinocin(9to1)) | – | – | Scotin protein level (Scotin [1]; human primary fibroblast and tumour cells expressing wt p53, 60 ng/ml): clearly accumulated; Scotin protein level (Scotin [1]; human tumour cell lines devoid of p53 expression, 60 ng/ml): not; Scotin protein level (Scotin [2]; p53+/+ MEF): clearly accumulated; Scotin protein level (Scotin [2]; p53−/− MEF): not |
| tunicamycin | resistant | more resistant | cell death by TUNEL (NIH3T3 fibroblasts): die by apoptosis |
| N#CC(C#N)=NNc1ccc(OC(F)(F)F)cc1 [FCCP] | – | not | – |
| C/C=C(/C)C(=O)O[C@H]1C(C)=C2[C@H]([C@@H]1OC(=O)CCCCCCC)[C@@](C)(OC(C)=O)C[C@H](OC(=O)CCC)[C@@]1(O)[C@H]2OC(=O)[C@@]1(C)O [thapsigargin] | resistant | more resistant | – |
| COc1cccc2c1C(=O)c1c(O)c3c(c(O)c1C2=O)C[C@@](O)(C(=O)CO)C[C@@H]3O[C@H]1C[C@H](N)[C@H](O)[C@H](C)O1 [doxorubicin] | – | more resistant | – |
